Our source for the IC50 values is patent publication US10023543B2 (CELGENE QUANTICEL RESEARCH, INC., priority 2014, dated 2018).

Bounds are passed on as bounds.

This test has as its system THP-1 (AML) cells. Briefly: LSD1 CD11b cellular assay (flow cytometry). It is filed as cell-based. The note with it: Homo sapiens, THP-1, 96 h; CD11b expressing cells, 4 days; read-out: THP-1 IC50. (Flow cytometry measures light scatter and fluorescence of single cells or particles in a stream.)
By IC50 is commonly meant the concentration at which inhibition is half-maximal. As for `Cn1c(N2CCC(N)CC2)nc(-c2ccc(C#N)cc2)c(-c2ccc3c(cnn3C)c2)c1=O` [Example 33, 4-[2-(4-aminopiperidyl)-1-methyl-5-(1-methyl(1H-indazol-5-yl))-6-oxohydropyrimidin-4-yl]benzenecarbonitrile], the IC50 was < 100 nM.

On to `COc1ccc(-c2c(-c3ccc(C#N)c(F)c3)nc(NC[C@H]3CCNC3)n(C)c2=O)cc1` [Example 51, 2-fluoro-4-{5-(4-methoxy-phenyl)-1-methyl-6-oxo-2-[(3S)-(pyrrolidin-3-ylmethyl)-amino]-1,6-dihydro-pyrimidin-4-yl}-benzonitrile], for which the IC50 was 100 to 1000 nM.

As to `COc1ccc(-c2c(-c3ccc(Cl)c(F)c3)nc(N3CCC(N)CC3)n(C)c2=O)cc1` [Example 111, 2-(4-amino-piperidin-1-yl)-6-(4-chloro-3-fluoro-phenyl)-5-(4-methoxy-phenyl)-3-methyl-3H-pyrimidin-4-one], the IC50 lay in the range of 100 to 1000 nM.

Take `CN(C)C1CCN(c2nc(-c3ccc(C#N)c(F)c3)c(-c3ccc4cn(C)nc4c3)c(=O)n2C)CC1` [Example 80, 4-[2-(4-dimethylamino-piperidin-1-yl)-1-methyl-5-(2-methyl-2H-indazol-6-yl)-6-oxo-1,6-dihydro-pyrimidin-4-yl]-2-fluoro-benzonitrile]: the IC50 was < 100 nM.

Turning to `Cn1c(N2CCC(N)CC2)nc(-c2ccc(C#N)c(F)c2)c(C#CC2CCCC2)c1=O` [Example 14, 4-[2-(4-amino-piperidin-1-yl)-5-cyclopentylethynyl-1-methyl-6-oxo-1,6-dihydro-pyrimidin-4-yl]-2-fluoro-benzonitrile], the IC50 was < 100 nM.

As for `COc1ccc(-c2c(-c3ccc(C#N)c(F)c3)nc(N3CCC(N(C)C)CC3)n(C)c2=O)cn1` [Example 92, 4-[2-[4-(dimethylamino)piperidin-1-yl]-5-(6-methoxypyridin-3-yl)-1-methyl-6-oxopyrimidin-4-yl]-2-fluorobenzonitrile], the IC50 is < 100 nM.

As to `COc1ccc(-c2c(-c3ccc(C#N)cc3)nc(NC3CCNCC3)n(C)c2=O)cc1F` [Example 48, 4-[5-(3-fluoro-4-methoxy-phenyl)-1-methyl-6-oxo-2-(piperidin-4-ylamino)-1,6-dihydro-pyrimidin-4-yl]-benzonitrile], the IC50 lay in the range of 100 to 1000 nM.

Take `COc1ccc(-c2c(-c3ccc(C#N)c(F)c3)nc(N3CC[C@@H](N)C3)n(C)c2=O)cc1F` [Example 27, 4-[2-((3R)-3-aminopyrrolidinyl)-5-(3-fluoro-4-methoxyphenyl)-1-methyl-6-oxohydropyrimidin-4-yl]-2-fluorobenzenecarbonitrile]: the IC50 was < 100 nM.

For `COc1ccc(-c2c(-c3ccc(C#N)c(F)c3)nc(N3CC[C@H](N)[C@H](F)C3)n(C)c2=O)cc1` [Example 79, 4-[2-((4S,3R)-4-amino-3-fluoro-piperidin-1-yl)-5-(4-methoxy-phenyl)-1-methyl-6-oxo-1,6-dihydro-pyrimidin-4-yl]-2-fluoro-benzonitrile], the IC50 is < 100 nM.

`COc1c(F)cc(-c2c(-c3ccc(C#N)cc3)nc(N3CCC(N)CC3)n(C)c2=O)cc1F` [Example 38, 4-[2-(4-aminopiperidyl)-5-(3,5-difluoro-4-methoxyphenyl)-1-methyl-6-oxohydropyrimidin-4-yl]benzenecarbonitrile]: the IC50 is < 100 nM.

As for `Cn1c(N2CCC(N)CC2)nc(-c2ccc(C#N)cc2)c(-c2ccc(C(N)=O)c(F)c2)c1=O` [Example 41, 4-[2-(4-aminopiperidyl)-6-(4-cyanophenyl)-3-methyl-4-oxo(3-hydropyrimidin-5-yl)]-2-fluorobenzamide], the IC50 was in the range of 100 to 1000 nM.

For `CNc1ccc(-c2c(-c3ccc(C#N)c(F)c3)nc(N3CCC(N)CC3)n(C)c2=O)cc1F` [Example 91, 4-[2-(4-aminopiperidin-1-yl)-5-[3-fluoro-4-(methylamino)phenyl]-1-methyl-6-oxopyrimidin-4-yl]-2-fluorobenzonitrile], the half-inhibitory concentration (IC50) is < 100 nM.

As to `Cn1c(N2CCC(N)CC2)nc(-c2ccc(C#N)c(F)c2)c(-c2ccc(N3CCCC3)nc2)c1=O` [Example 60, 4-[2-(4-amino-piperidin-1-yl)-1-methyl-6-oxo-5-(6-pyrrolidin-1-yl-pyridin-3-yl)-1,6-dihydro-pyrimidin-4-yl]-2-fluoro-benzonitrile], the IC50 was < 100 nM.

Take `COc1ccc(-c2c(-c3ccc(C#N)c(F)c3)nc(N3CCC[C@@H](N)C3)n(C)c2=O)cc1` [Example 30, 4-[2-((3R)-3-aminopiperidyl)-5-(4-methoxyphenyl)-1-methyl-6-oxohydro-pyrimidin-4-yl]-2-fluorobenzenecarbonitrile]: the IC50 was < 100 nM.

As for `Cn1c(N2CCC(N)CC2)nc(-c2ccc(C#N)c(F)c2)c(-c2cc(F)cc(F)c2)c1=O` [Example 103, 4-[2-(4-aminopiperidin-1-yl)-5-(3,5-difluorophenyl)-1-methyl-6-oxopyrimidin-4-yl]-2-fluorobenzonitrile], the IC50 is < 100 nM.

With `Cn1c(N2CCC(N)CC2)nc(-c2ccc(C#N)c(F)c2)c(-c2ccc(F)c(F)c2)c1=O` [Example 104, 4-[2-(4-aminopiperidin-1-yl)-5-(3,4-difluorophenyl)-1-methyl-6-oxopyrimidin-4-yl]-2-fluorobenzonitrile], the IC50 is < 100 nM.

On to `CNC(=O)c1ccc(-c2c(-c3ccc(C#N)cc3)nc(N3CCC(N)CC3)n(C)c2=O)cc1F` [Example 40, {4-[2-(4-aminopiperidyl)-6-(4-cyanophenyl)-3-methyl-4-oxo(3-hydropyrimidin-5-yl)]-2-fluorophenyl}-N-methylcarboxamide], for which the IC50 was in the range of 100 to 1000 nM.

As to `Cn1c(N2CCC(N)CC2)nc(-c2ccc(C#N)c(F)c2)c(-c2ccc3occc3c2)c1=O` [Example 18, 4-[2-(4-amino-piperidin-1-yl)-5-benzofuran-5-yl-1-methyl-6-oxo-1,6-dihydro-pyrimidin-4-yl]-2-fluoro-benzonitrile], the IC50 is < 100 nM.

For the molecule `CN(C)c1ncc(-c2c(-c3ccc(C#N)c(F)c3)nc(N3CCC(N)CC3)n(C)c2=O)cn1` [Example 49, 4-[2-(4-amino-piperidin-1-yl)-2′-dimethylamino-1-methyl-6-oxo-1,6-dihydro-[5,5′]bipyrimidinyl-4-yl]-2-fluoro-benzonitrile], the IC50 was < 100 nM.

Take `Cn1c(N2CCC(N)CC2)nc(-c2ccc(C#N)c(F)c2)c(-c2ccc(Cl)cc2)c1=O` [Example 106, 4-[2-(4-aminopiperidin-1-yl)-5-(4-chlorophenyl)-1-methyl-6-oxopyrimidin-4-yl]-2-fluorobenzonitrile]: the IC50 is < 100 nM.

Consider `Cn1c(N2CCC(N)CC2)nc(-c2ccc(C#N)c(F)c2)c(-c2ccc3cn[nH]c3c2)c1=O` [Example 77, 4-[2-(4-amino-piperidin-1-yl)-5-(1H-indazol-6-yl)-1-methyl-6-oxo-1,6-dihydro-pyrimidin-4-yl]-2-fluoro-benzonitrile], for which the 50% inhibitory concentration (IC50) was < 100 nM.

On to `Cn1c(N2CCC(N)CC2)nc(-c2ccc(C#N)c(F)c2)c(-c2ccc(C(F)(F)F)nc2)c1=O` [Example 23, 4-{2-(4-aminopiperidyl)-1-methyl-6-oxo-5-[6-(trifluoromethyl) (3-pyridyl)]hydropyrimidin-4-yl}-2-fluorobenzenecarbonitrile], for which the IC50 is < 100 nM.

In the case of `COc1ccc(-c2c(-c3ccc(C#N)c(F)c3)nc(N3CCC(N)CC3)n(CC(N)=O)c2=O)cc1` [Example 16, 2-[2-(4-amino-piperidin-1-yl)-4-(4-cyano-3-fluoro-phenyl)-5-(4-methoxy-phenyl)-6-oxo-6H-pyrimidin-1-yl]-acetamide], the IC50 is < 100 nM.

Take `COc1ccc(-c2c(-c3ccc(C#N)c(F)c3)nc(N(C)C[C@@H]3CCNC3)n(C)c2=O)cc1` (stereo in doubt) [Example 56, 2-fluoro-4-[5-(4-methoxy-phenyl)-1-methyl-2-(methyl-pyrrolidin-3-ylmethyl-amino)-6-oxo-1,6-dihydro-pyrimidin-4-yl]-benzonitrile]: the IC50 is < 100 nM.

As for `Cn1c(N2CCC(N)CC2)nc(-c2ccc(C#N)cc2)c(-c2ccc(OCCO)cc2)c1=O` [Example 97, 4-[2-(4-aminopiperidin-1-yl)-5-[4-(2-hydroxyethoxy)phenyl]-1-methyl-6-oxopyrimidin-4-yl]benzonitrile], the IC50 is < 100 nM.

As for `Cn1c(N2CCC(N)CC2)nc(-c2ccc(C#N)c(F)c2)c(-c2ccc(N)cc2)c1=O` [Example 89, 4-[5-(4-aminophenyl)-2-(4-aminopiperidin-1-yl)-1-methyl-6-oxopyrimidin-4-yl]-2-fluorobenzonitrile], the IC50 was < 100 nM.

Turning to `COc1ccc(-c2c(-c3ccc(C#N)c(F)c3)nc(N3CCCNCC3)n(C)c2=O)cc1F` [Example 46, 4-[2-[1,4]diazepan-1-yl-5-(3-fluoro-4-methoxy-phenyl)-1-methyl-6-oxo-1,6-dihydro-pyrimidin-4-yl]-2-fluoro-benzonitrile], the IC50 is < 100 nM.

As for `COc1ccc(-c2c(-c3ccc(C#N)c(F)c3)nc(N(C)C[C@H]3CCNC3)n(C)c2=O)cc1` [Example 54, 2-fluoro-4-[5-(4-methoxy-phenyl)-1-methyl-2-(methyl-(3S)-pyrrolidin-3-ylmethyl-amino)-6-oxo-1,6-dihydro-pyrimidin-4-yl]-benzonitrile], the IC50 was < 100 nM.

With `Cn1cc2cc(-c3c(-c4ccc(C#N)c(F)c4)nc(N4CCC(N)CC4)n(C)c3=O)ccc2n1` [Example 37, 4-[2-(4-aminopiperidyl)-1-methyl-5-(2-methyl(2H-indazol-5-yl))-6-oxohydropyrimidin-4-yl]-2-fruorobenzenecarbonitrile], the IC50 was < 100 nM.

Consider `COc1ccc(-c2c(-c3ccc(C#N)c(F)c3)nc(N3CC(CN)C3)n(C)c2=O)cc1` [Example 69, 4-[2-(3-aminomethyl-azetidin-1-yl)-5-(4-methoxy-phenyl)-1-methyl-6-oxo-1,6-dihydro-pyrimidin-4-yl]-2-fluoro-benzonitrile], for which the IC50 is 100 to 1000 nM.

Turning to `CCOc1ncc(-c2c(-c3ccc(C#N)c(F)c3)nc(N3CCC(N)CC3)n(C)c2=O)cc1F` [Example 93, 4-[2-(4-aminopiperidin-1-yl)-5-(6-ethoxy-5-fluoropyridin-3-yl)-1-methyl-6-oxopyrimidin-4-yl]-2-fluorobenzonitrile], the IC50 is < 100 nM.
